# According to publication PMC6888615, “A Miniaturized Pump Out Method for Characterizing Molecule Interaction with ABC Transporters” (International Journal of Molecular Sciences, 2019):
# Read-outs that look alike come from different tables or passages of the source.
# Columns and labels:
# MRPs [1] = experiment: Caco-2 pump out assay, CMFDA excretion; type: cell-based; settings: for effect on rate out of CMFDA: 50 µM (cyclosporin A 10 µM; doxorubicin 20 µM); for reduction of kout of CMFDA: 50 µM (elacridar 10 µM), p < 0.001
# MRPs [2] = system: MRPs; set-up: method as in PMID 21415249; settings: read-out: MRPs IC50 published value; cited from earlier work
# P-gp [3] = settings: cited from earlier work
# BCRP = settings: cited from earlier work
# MRPs [4] = settings: cited from earlier work
# P-gp/BCRP [5] = experiment: Caco-2 pump out assay, rhodamine 123 excretion; settings: for Ratio Kout 96/384 wells, P-gp/BCRP: Kout R123 96-well / 384-well; for decrease of Kout of R123: 50 µM (cyclosporin A, elacridar, TPGS 10 µM; doxorubicin 20 µM);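 as to all read-outs here: Caco-2 cells loaded 120 min with 10 µM rhodamine 123, then dye efflux read by fluorescence at 37 °C every 2 min for 1 h, Kout as slope, compared against compound-free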
# [6] = Bidirectional transport (Papp) across Caco-2 monolayers on 24-well inserts, 21 days; settings: human, Caco-2, pH 7.4
# P-gp/BCRP [7] = system: P-gp/BCRP;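 also: Caco-2 cells loaded 120 min with 10 µM rhodamine 123, then dye efflux read by fluorescence at 37 °C every 2 min for 1 h, Kout as slope, compared against compound-free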
# [8] = system: efflux pump activity in Caco-2 cells; experiment: b→a permeability of doxorubicin across Caco-2 with efflux pump inhibitors; type: in vitro ADME; settings: doxorubicin 20 µM; cyclosporin A 10 µM, elacridar 0.5 µM
# P-gp [9] = settings: read-out: P-gp IC50 based on the digoxin ER; cited from earlier work
molecule,measurement,setting,value
"CN(C)C(=O)CCSC(SCCC(=O)O)c1cccc(C=Cc2ccc3ccc(Cl)cc3n2)c1 (centres unmarked) [MK571, 3-[[3-[2-(7-chloroquinolin-2-yl)vinyl]phenyl]-(2-dimethylcarbamoylethylsulfanyl)methylsulfanyl] propionic acid]",effect on rate out of CMFDA,MRPs [1],decreased strongly
same,"Transporter interaction, MRPs",MRPs [1]; 96 wells,+ (Interaction with efflux pumps when Kout ≤ 80% of control)
same,"Transporter interaction, MRPs",MRPs [1]; 384 wells,+ (Interaction with efflux pumps when Kout ≤ 80% of control)
same,IC50,"MRPs [1]; read-out: IC50 towards MRPs activity (CMFDA excretion), non-linear regression of pump out assay data",3.8 µM
same,IC50,MRPs [2],2430 nM
same,IC50,P-gp [3],26 µM
same,IC50,BCRP,50 µM
same,IC50,MRPs [4],10 µM
same,"kout Rho 123, mean",P-gp/BCRP [5],70.9 ± 10.6 pmol.min^−1.mg^−1 Protein
same,"Transporter interaction, P-gp/BCRP",P-gp/BCRP [5]; 96 wells,+ (Interaction with efflux pumps when Kout ≤ 80% of control)
same,"Transporter interaction, P-gp/BCRP",P-gp/BCRP [5]; 384 wells,+ (Interaction with efflux pumps when Kout ≤ 80% of control)
same,"Ratio Kout 96/384 wells, P-gp/BCRP",P-gp/BCRP [5],1.19
same,effect on rate out of cell of R123,"P-gp/BCRP [5]; MK571 50 µM, p < 0.001",slight reduction
"COC(=O)c1ccccc1-c1c2ccc(=N)cc-2oc2cc(N)ccc12 [R123, rhodamine 123]",Papp A→B at 1 h,[6],1.51 ± 0.01 ×10⁻⁶ cm/s
same,Papp B→A at 1 h,[6],8.94 ± 0.4 ×10⁻⁶ cm/s
same,"efflux ratio at 1 h, 20 µM",[6],5.96 ± 0.26
CC(=O)Nc1ccc(O)cc1 [acetanomiphen],"kout Rho 123, mean",P-gp/BCRP [5],113.7 ± 12.6 pmol.min^−1.mg^−1 Protein
same,"Ratio Kout 96/384 wells, P-gp/BCRP",P-gp/BCRP [5],1.08
O=C(O)Cc1ccccc1Nc1c(Cl)cccc1Cl [diclofenac],"Transporter interaction, MRPs",MRPs [1]; 96 wells,−
same,"Transporter interaction, MRPs",MRPs [1]; 384 wells,−
COc1ccc([C@@H]2Sc3ccccc3N(CCN(C)C)C(=O)[C@@H]2OC(C)=O)cc1 [diltiazem],"Transporter interaction, MRPs",MRPs [1]; 96 wells,−
same,"Transporter interaction, MRPs",MRPs [1]; 384 wells,−
COc1cccc2c1C(=O)c1c(O)c3c(c(O)c1C2=O)C[C@@](O)(C(=O)CO)C[C@@H]3O[C@H]1C[C@H](N)[C@H](O)[C@H](C)O1 [doxorubicin],effect on rate out of CMFDA,MRPs [1],decreased strongly
same,"Transporter interaction, MRPs",MRPs [1]; 96 wells,+ (Interaction with efflux pumps when Kout ≤ 80% of control)
same,"Transporter interaction, MRPs",MRPs [1]; 384 wells,−
same,"Transporter interaction, P-gp/BCRP",P-gp/BCRP [7]; 96 wells,+ (Interaction with efflux pumps when Kout ≤ 80% of control)
same,"Transporter interaction, P-gp/BCRP",P-gp/BCRP [7]; 384 wells,+ (Interaction with efflux pumps when Kout ≤ 80% of control)
same,decrease of Kout of R123,P-gp/BCRP [5]; p < 0.001,more than 30%
same,"Ratio Kout 96/384 wells, P-gp/BCRP",P-gp/BCRP [5],1.03
same,Papp A→B at 1 h,[6],0.36 ± 0.03 ×10⁻⁶ cm/s
same,Papp B→A at 1 h,[6],7.6 ± 0.4 ×10⁻⁶ cm/s
same,"efflux ratio at 1 h, 20 µM",[6],21.9 ± 1.11
COc1cc2c(cc1OC)CN(CCc1ccc(NC(=O)c3cccc4c(=O)c5cccc(OC)c5[nH]c34)cc1)CC2 [elacridar],reduction of b→a permeability of doxorubicin,[8],25%
same,reduction of kout of CMFDA,MRPs [1],more than 20%
same,"Transporter interaction, MRPs",MRPs [1]; 96 wells,+ (Interaction with efflux pumps when Kout ≤ 80% of control)
same,"Transporter interaction, MRPs",MRPs [1]; 384 wells,+ (Interaction with efflux pumps when Kout ≤ 80% of control)
same,"Transporter interaction, P-gp/BCRP",P-gp/BCRP [7]; 96 wells,+ (Interaction with efflux pumps when Kout ≤ 80% of control)
same,"Transporter interaction, P-gp/BCRP",P-gp/BCRP [7]; 384 wells,+ (Interaction with efflux pumps when Kout ≤ 80% of control)
same,decrease of Kout of R123,P-gp/BCRP [5]; p < 0.001,more than 30%
same,"Ratio Kout 96/384 wells, P-gp/BCRP",P-gp/BCRP [5],0.81
CN(C)C(=O)C(CCN1CCC(O)(c2ccc(Cl)cc2)CC1)(c1ccccc1)c1ccccc1 [loperamide],reduction of kout of CMFDA,MRPs [1],more than 20%
same,"Transporter interaction, MRPs",MRPs [1]; 96 wells,+ (Interaction with efflux pumps when Kout ≤ 80% of control)
same,"Transporter interaction, MRPs",MRPs [1]; 384 wells,+ (Interaction with efflux pumps when Kout ≤ 80% of control)
same,"kout Rho 123, mean",P-gp/BCRP [5],42.0 ± 4.9 pmol.min^−1.mg^−1 Protein
same,decrease of Kout of R123,P-gp/BCRP [5]; p < 0.001,more than 30%
same,"Transporter interaction, P-gp/BCRP",P-gp/BCRP [5]; 96 wells,+ (Interaction with efflux pumps when Kout ≤ 80% of control)
same,"Transporter interaction, P-gp/BCRP",P-gp/BCRP [5]; 384 wells,+ (Interaction with efflux pumps when Kout ≤ 80% of control)
same,"Ratio Kout 96/384 wells, P-gp/BCRP",P-gp/BCRP [5],1.01
"OC[C@@H](O)[C@@H](O)[C@H](O)[C@H](O)CO [mannitol, Mannitol D-[1-14C]]",Papp A→B at 1 h,[6],0.26 ± 0.03 ×10⁻⁶ cm/s
same,Papp B→A at 1 h,[6],0.32 ± 0.03 ×10⁻⁶ cm/s
CCC1(c2ccccc2)C(=O)NC(=O)NC1=O [phenobarbital],"kout Rho 123, mean",P-gp/BCRP [5],107.1 ± 10.0 pmol.min^−1.mg^−1 Protein
same,"Ratio Kout 96/384 wells, P-gp/BCRP",P-gp/BCRP [5],1.09
C=C[C@H]1C[N@@]2CC[C@H]1C[C@@H]2[C@@H](O)c1ccnc2ccc(OC)cc12 [quinidine],IC50,P-gp [9],4.9 ± 0.9 µM
CO[C@H]1/C=C/O[C@@]2(C)Oc3c(C)c(O)c4c(O)c(c(/C=N/N5CCN(C)CC5)c(O)c4c3C2=O)NC(=O)/C(C)=C\C=C\[C@H](C)[C@H](O)[C@@H](C)[C@@H](O)[C@@H](C)[C@H](OC(C)=O)[C@@H]1C [rifampicin],reduction of kout of CMFDA,MRPs [1],more than 20%
same,"Transporter interaction, P-gp/BCRP",P-gp/BCRP [7]; 96 wells,+ (Interaction with efflux pumps when Kout ≤ 80% of control)
same,"Transporter interaction, P-gp/BCRP",P-gp/BCRP [7]; 384 wells,+ (Interaction with efflux pumps when Kout ≤ 80% of control)
same,decrease of Kout of R123,P-gp/BCRP [5]; p < 0.001,more than 30%
same,"Ratio Kout 96/384 wells, P-gp/BCRP",P-gp/BCRP [5],1.12
CC[C@]1(O)C[C@@H]2CN(CCc3c([nH]c4ccccc34)[C@@](C(=O)OC)(c3cc4c(cc3OC)N(C)[C@H]3[C@@](O)(C(=O)OC)[C@H](OC(C)=O)[C@]5(CC)C=CCN6CC[C@]43[C@@H]65)C2)C1 [vinblastine],reduction of kout of CMFDA,MRPs [1],more than 20%
same,decrease of Kout of R123,P-gp/BCRP [5]; p < 0.001,more than 30%
same,"Transporter interaction, P-gp/BCRP",P-gp/BCRP [5]; 96 wells,+ (Interaction with efflux pumps when Kout ≤ 80% of control)
same,"Transporter interaction, P-gp/BCRP",P-gp/BCRP [5]; 384 wells,+ (Interaction with efflux pumps when Kout ≤ 80% of control)
same,"Ratio Kout 96/384 wells, P-gp/BCRP",P-gp/BCRP [5],0.99
D-α-Tocopherol polyethylene glycol 1000 succinate,"kout Rho 123, mean",P-gp/BCRP [5],33.7 ± 2.7 pmol.min^−1.mg^−1 Protein
same,decrease of Kout of R123,P-gp/BCRP [5]; p < 0.001,more than 30%
same,"Transporter interaction, P-gp/BCRP",P-gp/BCRP [5]; 96 wells,+ (Interaction with efflux pumps when Kout ≤ 80% of control)
same,"Transporter interaction, P-gp/BCRP",P-gp/BCRP [5]; 384 wells,+ (Interaction with efflux pumps when Kout ≤ 80% of control)
Lucifer yellow,Papp of Lucifer yellow (apical-to-basal),Caco-2 cells,0.066 ± 0.016 × 10^−6 cm/s
